According to patent US20260184662A1, “COMPOSITE OF ACID AND SALT, AND PREPARATION METHOD THEREFOR” (NANJING NUTRABUILDING BIO-TECH CO., LTD., priority 2022, published 2026):

What was measured:
[1] = Determination of moisture contents with KF moisture meter at different time points; assay type: physicochemical; settings: temperature 23° C., humidity 92.5%
[2] = Stability of complexes at 30-80° C.; assay type: physicochemical

| Substance | moisture content (%) ([1]; 30 min) | moisture content (%) ([1]; 1 h) | moisture content (%) ([1]; 2 h) | moisture content (%) ([1]; 4 h) | moisture content (%) ([1]; 6 h) | moisture content (%) ([1]; 7 h) | moisture content (%) ([1]; 11 h) | moisture content (%) ([1]; 22 h) | Stability ([2]; 30° C.) | Stability ([2]; 40° C.) | Stability ([2]; 60° C.) | Stability ([2]; 70° C.) | Stability ([2]; 80° C.) |
| --- | --- | --- | --- | --- | --- | --- | --- | --- | --- | --- | --- | --- | --- |
| magnesium 3-hydroxybutyrate | 0.81% | 1.25% | 2.23% | 4.12% | 6.43% | 8.14% | 12.42% | 18.66% | unchanged | unchanged | Melted | melted | melted |
| magnesium R-3-hydroxybutyrate | 0.82% | 1.22% | 2.13% | 4.22% | 6.35% | 8.04% | 12.44% | 18.68% | unchanged | unchanged | melted | melted | melted |
